The record followed here is US20220226321A1, “INHIBITOR OF MNK FOR THE TREATMENT OF NEUROPATHIC PAIN” (Board of Regents, The University of Texas System, priority 2019, published 2022).

Entries after “also recorded” stand apart in the source; their conditions may differ.

Common to all, as to assay type: in vivo, mouse
For data set [1], the system named is eIF4E phosphorylation. Briefly: Western blot of eIF4E phosphorylation in mPFC, DRG and sciatic nerve. The method, then:
Western blotting. […] The mPFC and DRGs were rapidly microdissected under a dissecting microscope and then flash frozen on dry ice. The mPFC was similarly collected from a separate group of WT male and female sham and SNI mice at 21 days post injury (the same time point as all rule-shifting experiments). Frozen tissues were homogenized with a pestle in lysis buffer (50 mM Tris, pH 7.4, 150 mM NaCl, 1 mM EDTA, pH 8.0, and 1% Triton X-100) containing protease and phosphatase inhibitors (Sigma-Aldrich), and then sonicated briefly. Samples were centrifuged at 14,000 rpm for 15 min at 4° C. 10 μg of protein was loaded into each well and separated by a 10%-12% SDS-PAGE gel. Proteins were transferred to a 0.45 μm PVDF membrane (Millipore) at 30 V overnight at 4° C. The next day, membranes were blocked with 5% non-fat dry milk (NFDM) in 1× Tris buffer solution containing Tween 20 (TTBS) for 1 h. Membranes were washed in 1×TTBS 3 times for 5 min each, then incubated with primary antibody overnight at 4° C. The primary antibodies used were: phospho-eIF4E (abcam ab76256; 1:1000), GAPDH (Cell Signaling Technology 2118S; 1:10000), total eIF4E (Cell Signaling Technology 9742S; 1:1000). […] Signals were detected using Immobilon Western Chemiluminescent HRP substrate (Millipore). […]
(In western blotting, separated proteins are transferred to a membrane and probed.)

The subject of data set [2] is SNI mice. Briefly: mechanical withdrawal threshold (von Frey) after SNI. As to conditions: 1 or 3 hours after treatment on days 1 and 5 of 7-day schedule, 10 mg/kg p.o. As to the method:
Surgery. Spared nerve injury (SNI) was performed by the ligation and cutting of the tibial and peroneal branches of the left sciatic nerve trifurcation, leaving the sural branch intact as previously described (Decosterd and Woolf, 2000). Sham surgeries were performed the same way but without cutting the nerve. Mice were allowed to recover for 2 weeks following surgery.
Mechanical withdrawal threshold. Tactile sensitivity was measured by probing the left outer surface of the left hindpaw with a series of calibrated von Frey filaments. Mechanical withdrawal thresholds were assessed in all animals before (baseline) and after (2 weeks) surgery to confirm neuropathy. Withdrawal thresholds were calculated using the up-down method (Chaplan et al., 1994).

The subject of data set [3] is mice. Nature of the data set: open field. As to conditions: 10 mg/kg i.p., 1 hour; vehicle had the same effect. The method, then: Open field. […] Movement in the maze was video recorded for 10 minutes via ceiling-mounted cameras and tracked using a custom script in MATLAB-2015b. The script outputs total distance traveled and path tracking.
Data set [4] has as its system mice. Nature of the data set: marble burying task. As to conditions: 10 mg/kg p.o. daily for 7 days, vs WT naïve. The method, then: Marble burying task. The marble burying task was used to assess obsessive compulsive disorder (OCD)-like behaviors as previously described^28. Nineteen marbles were placed on top of 5 cm of standard bedding in a clean cage. A mouse was placed into the cage for 30 minutes and then the number of buried marbles was counted.

For the compound `Cc1cc(Nc2cc(N)ncn2)c(=O)n2c1C(=O)NC21CCCCC1` [eFT508, Tomivosertib], the “crossing of the blood-brain-barrier” value in data set [1] (evidenced by western blot of eIF4E phosphorylation after drug-treatment) is given as “crosses the blood-brain-barrier”. In addition, the “eIF4E phosphorylation in mPFC, DRG and sciatic nerve” value in data set [1] (naïve mice, 1 hour after 10 mg/kg i.p. or p.o.) was “rapid and profound decrease; also recorded: significantly decreased”. In addition, in data set [2], the mechanical withdrawal thresholds entry is recorded as “had no effect”. Also, the “movement speed in the open field vs naïve mice” value in data set [3] is listed as “moved significantly slower”. The marble burying entry in data set [4] is “no differences in marble burying; also recorded: performed similarly to naïve and vehicle-controls”.
